# Source: patent US6013768A, “Kainate-binding human CNS receptors of the EAA1 family” (priority 1997, dated 2000)
# Target: T1, human EAA1a receptor (Homo sapiens, UniProt Q16099)
# T1 construct: expressed in transfected cells; host or cells: COS-1 (ATCC CRL 1650), transient expression, plasmid pcDNA1/humEAA1a
# T1 sequence (Q16099 21-956): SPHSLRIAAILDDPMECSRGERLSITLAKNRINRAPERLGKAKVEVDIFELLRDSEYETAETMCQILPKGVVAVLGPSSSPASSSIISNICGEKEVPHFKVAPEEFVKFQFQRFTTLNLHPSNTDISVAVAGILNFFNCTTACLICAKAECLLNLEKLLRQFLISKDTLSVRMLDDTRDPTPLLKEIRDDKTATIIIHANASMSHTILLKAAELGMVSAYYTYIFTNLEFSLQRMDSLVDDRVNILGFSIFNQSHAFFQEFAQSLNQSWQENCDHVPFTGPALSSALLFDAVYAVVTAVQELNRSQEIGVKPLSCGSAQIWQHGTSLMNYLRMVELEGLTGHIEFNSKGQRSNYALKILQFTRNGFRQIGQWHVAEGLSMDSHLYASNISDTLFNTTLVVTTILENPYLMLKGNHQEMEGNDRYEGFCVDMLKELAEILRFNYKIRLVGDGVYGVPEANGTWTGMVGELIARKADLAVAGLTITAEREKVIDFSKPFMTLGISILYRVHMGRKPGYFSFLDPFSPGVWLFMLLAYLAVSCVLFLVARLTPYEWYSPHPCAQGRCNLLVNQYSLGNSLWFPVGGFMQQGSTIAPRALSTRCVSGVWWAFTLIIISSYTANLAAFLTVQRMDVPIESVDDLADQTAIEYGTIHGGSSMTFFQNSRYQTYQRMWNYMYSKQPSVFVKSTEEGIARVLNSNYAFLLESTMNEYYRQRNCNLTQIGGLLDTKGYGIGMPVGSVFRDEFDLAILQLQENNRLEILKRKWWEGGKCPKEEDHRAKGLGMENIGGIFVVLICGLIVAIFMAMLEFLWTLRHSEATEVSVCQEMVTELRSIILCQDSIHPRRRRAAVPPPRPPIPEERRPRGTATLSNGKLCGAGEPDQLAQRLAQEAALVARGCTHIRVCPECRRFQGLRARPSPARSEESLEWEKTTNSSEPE
# Assay: kainate binding assay, membranes of EAA1a-producing COS cells
# Procedure: Transfected cells in the frozen state were resuspended in ice-cold distilled water using a hand homogenizer and centrifuged for 20 minutes at 50,000 g. The supernatant was discarded and the membrane pellet stored frozen at -70° C.
# COS cell membrane pellets were suspended in ice cold 50 mM Tris-HCl (pH 7.55, 5° C.) and placed inside Spectrapor 7 (EDTA-treated, sulfur-free) dialysis tubing. The suspension was placed in 4 liters of ice cold 50 mM Tris-HCl (pH 7.55, 5° C.) and dialyzed for 16-24 hours at 5° C. in order to remove endogenous glutamate that would compete for binding. The tissue suspension was recovered from the tubing along with a small volume of buffer used to rinse the tubing. This resultant membrane preparation was used as tissue source for binding experiments described below.
# Binding assays were then performed, using an amount of COS-derived membrane equivalent to from 25-100 μg as judged by protein determination and selected radiolabelled ligand.
# For kainate binding assays, incubation mixtures consisted of 25-100 μg tissue protein and [vinylidene-^3 H] kainic acid (58 Ci/mmole, 5 nM final) in the cold incubation buffer, 1 ml final volume. Non-specific binding was in the presence of 1 mM L-glutamate. […] Filters were washed twice in 6 ml of the cold incubation buffer, then placed in scintillation vials with 5 ml of Beckman Ready-Safe scintillation cocktail for counting.
smiles,measurement,setting,value
C=C(C)[C@H]1CN[C@H](C(=O)O)[C@H]1CC(=O)O [kainate],kainate binding affinity,"EAA1a-producing COS cell membranes, high affinity category i.e. nanomolar range",high affinity
same,specific binding of labelled kainate,"[3H]-kainate 5 nM labelled ligand, COS cell membranes, non-specific binding with 1 mM L-glutamate, FIG. 5",specific [^3 H]-kainate binding
